Our source for the IC50 values is US20030186967A1, “Acylresorcinol derivatives are selective vitronectin receptor inhibitors” (American Home Products Corporation, priority 1998, published 2003).

The target in this assay is T1, Vitronectin receptor αVβ3 (Homo sapiens, UniProt P05106+P06756).
T1 construct: expressed in transfected cells; host or cells: 512P5 cells (plasma membrane preparation)
T1 sequence (P06756 31-889 limits assumed): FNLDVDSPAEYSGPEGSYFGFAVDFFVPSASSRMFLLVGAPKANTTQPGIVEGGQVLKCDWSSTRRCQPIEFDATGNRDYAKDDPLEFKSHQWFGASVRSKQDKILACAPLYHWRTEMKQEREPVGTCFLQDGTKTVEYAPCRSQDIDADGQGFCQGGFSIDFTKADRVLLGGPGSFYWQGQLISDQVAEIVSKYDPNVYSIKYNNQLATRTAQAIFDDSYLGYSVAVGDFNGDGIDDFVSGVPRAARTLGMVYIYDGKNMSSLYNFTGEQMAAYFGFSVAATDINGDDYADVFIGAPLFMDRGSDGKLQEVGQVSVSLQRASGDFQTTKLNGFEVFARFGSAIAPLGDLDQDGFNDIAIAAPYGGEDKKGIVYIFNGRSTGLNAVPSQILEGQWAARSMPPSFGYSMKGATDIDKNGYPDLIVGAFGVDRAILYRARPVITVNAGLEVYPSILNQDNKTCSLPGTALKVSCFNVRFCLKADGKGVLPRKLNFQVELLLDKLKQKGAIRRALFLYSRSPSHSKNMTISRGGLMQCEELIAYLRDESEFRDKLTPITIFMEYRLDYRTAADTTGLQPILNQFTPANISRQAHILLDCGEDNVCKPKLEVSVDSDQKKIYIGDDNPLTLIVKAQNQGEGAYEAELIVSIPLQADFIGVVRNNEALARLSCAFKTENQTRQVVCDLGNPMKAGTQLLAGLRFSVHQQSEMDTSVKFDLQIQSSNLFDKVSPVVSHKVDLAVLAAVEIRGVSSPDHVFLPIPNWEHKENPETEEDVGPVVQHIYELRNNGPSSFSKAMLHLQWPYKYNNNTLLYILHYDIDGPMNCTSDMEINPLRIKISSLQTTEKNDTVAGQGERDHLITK
T1 sequence (P06756 891-1048 partner limits assumed): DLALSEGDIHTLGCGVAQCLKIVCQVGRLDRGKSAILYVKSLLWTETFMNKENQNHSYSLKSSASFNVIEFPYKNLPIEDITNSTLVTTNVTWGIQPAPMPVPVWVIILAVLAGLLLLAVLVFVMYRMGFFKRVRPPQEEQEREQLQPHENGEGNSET
T1 sequence (P05106 27-788): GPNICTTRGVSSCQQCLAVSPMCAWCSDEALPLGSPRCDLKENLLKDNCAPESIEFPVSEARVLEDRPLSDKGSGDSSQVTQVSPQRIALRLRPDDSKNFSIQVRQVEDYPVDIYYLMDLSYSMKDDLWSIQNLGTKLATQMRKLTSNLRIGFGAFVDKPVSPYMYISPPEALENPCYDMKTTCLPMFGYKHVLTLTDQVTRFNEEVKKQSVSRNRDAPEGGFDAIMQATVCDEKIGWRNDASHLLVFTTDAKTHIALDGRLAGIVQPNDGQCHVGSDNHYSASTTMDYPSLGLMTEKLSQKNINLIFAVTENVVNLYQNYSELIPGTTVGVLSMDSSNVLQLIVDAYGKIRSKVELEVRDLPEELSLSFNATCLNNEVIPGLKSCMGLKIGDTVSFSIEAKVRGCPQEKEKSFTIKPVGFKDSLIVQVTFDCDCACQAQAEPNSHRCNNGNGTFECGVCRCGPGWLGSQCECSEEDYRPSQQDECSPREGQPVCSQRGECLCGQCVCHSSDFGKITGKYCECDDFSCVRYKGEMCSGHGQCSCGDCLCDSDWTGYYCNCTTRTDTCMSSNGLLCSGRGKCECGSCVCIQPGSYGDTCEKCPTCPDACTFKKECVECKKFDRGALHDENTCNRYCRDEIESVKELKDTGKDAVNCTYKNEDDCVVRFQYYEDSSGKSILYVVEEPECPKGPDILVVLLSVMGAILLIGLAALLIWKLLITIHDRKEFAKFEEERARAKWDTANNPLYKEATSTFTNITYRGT
Kind of assay: Vitronectin Receptor αVβ3 Binding Assay. The note with it: read-out: VnR (IC50μM).
`CCOC(=O)N[C@@H](CNC(=O)c1ccc(OCCNC(=O)NCc2ccccc2)cc1O)C(=O)O` [Example 222, (2S)-3-{[4-(2-{[(benzylamino)carbonyl]amino}ethoxy)-2-hydroxybenzoyl]amino}-2-[(ethoxycarbonyl)amino]propanoic acid]: the IC50 was 20.8 µM.
Under `CCCOC(=O)N[C@@H](CNC(=O)c1ccc(OCCNC(=O)NCc2ccccc2)cc1O)C(=O)O` [Example 223, (2S)-3-{[4-(2-{[(benzylamino)carbonyl]amino}ethoxy)-2-hydroxybenzoyl]amino}-2-[(propoxycarbonyl)amino]propanoic acid] stands 5.5 µM; under `CC(C)OC(=O)N[C@@H](CNC(=O)c1ccc(OCCNC(=O)NCc2ccccc2)cc1O)C(=O)O` [Example 224, (2S)-3-{[4-(2-{[(benzylamino)carbonyl]amino}ethoxy)-2-hydroxybenzoyl]amino}-2-[(isopropoxycarbonyl)amino]propanoic acid], 4.1 µM; under `C=CCOC(=O)N[C@@H](CNC(=O)c1ccc(OCCNC(=O)NCc2ccccc2)cc1O)C(=O)O` [Example 225, (2S)-2-{[(allyloxy)carbonyl]amino}-3-{[4-(2-{[(benzylamino)carbonyl]amino}-ethoxy)-2-hydroxybenzoyl]amino}propanoic acid], 5 µM.
Under `C=CCCOC(=O)N[C@@H](CNC(=O)c1ccc(OCCNC(=O)NCc2ccccc2)cc1O)C(=O)O` [Example 226, (2S)-3-{[4-(2-{[(benzylamino)carbonyl]amino}ethoxy)-2-hydroxybenzoyl]amino}-2-{[(but-3-enyloxy)carbonyl]amino}propanoic acid] stands 5.2 µM.
Under `C#CCOC(=O)N[C@@H](CNC(=O)c1ccc(OCCNC(=O)NCc2ccccc2)cc1O)C(=O)O` [Example 227, (2S)-3-{[4-(2-{[(benzylamino)carbonyl]amino}ethoxy)-2-hydroxybenzoyl]amino}-2-{[(prop-2-ynyloxy)carbonyl]amino}propanoic acid] stands 5.1 µM; under `CCCCCCOC(=O)N[C@@H](CNC(=O)c1ccc(OCCNC(=O)NCc2ccccc2)cc1O)C(=O)O` [Example 228, (2S)-3-{[4-(2-{[(benzylamino)carbonyl]amino}ethoxy)-2-hydroxybenzoyl]amino}-2-{[(hexyloxy)carbonyl]amino}propanoic acid], 10.2 µM.
Consider `CCCCCCCCOC(=O)N[C@@H](CNC(=O)c1ccc(OCCNC(=O)NCc2ccccc2)cc1O)C(=O)O` [Example 229, (2S)-3-{[4-(2-{[(benzylamino)carbonyl]amino}ethoxy)-2-hydroxybenzoyl]amino}-2-{[(octyloxy)carbonyl]amino}propanoic acid], for which the IC50 came to 17.1 µM.
Then `O=C(NCCOc1ccc(C(=O)NC[C@H](NC(=O)OCC(Cl)(Cl)Cl)C(=O)O)c(O)c1)NCc1ccccc1` [Example 230, (2S)-3-{[4-(2-{[(benzylamino)carbonyl]amino}ethoxy)-2-hydroxybenzoyl]amino}-2-{[(2,2,2-trichloroethoxy)carbonyl]amino}propanoic acid], with 4 µM.
Then `CCCCOC(=O)N[C@@H](CNC(=O)c1ccc(OCCNC(=O)NCc2ccccc2)cc1O)C(=O)O` [Example 231, (2S)-3-{[4-(2-{[(benzylamino)carbonyl]amino}ethoxy)-2-hydroxybenzoyl]amino}-2-[(butoxycarbonyl)amino]propanoic acid], with 6.7 µM; and `CC(C)COC(=O)N[C@@H](CNC(=O)c1ccc(OCCNC(=O)NCc2ccccc2)cc1O)C(=O)O` [Example 232, (2S)-3-{[4-(2-{[(benzylamino)carbonyl]amino}ethoxy)-2-hydroxybenzoyl]amino}-2-[(isobutoxycarbonyl)amino]propanoic acid], with 3.7 µM; and `O=C(NCCOc1ccc(C(=O)NC[C@H](NC(=O)OCc2ccccc2)C(=O)O)c(O)c1)NCc1cccnc1` [Example 233], with 3.3 µM.
Then `COC(=O)N[C@@H](CNC(=O)c1ccc(OCCNC(=O)NCc2cccnc2)cc1O)C(=O)O` [Example 234, (2S)-3-({2-hydroxy-4-[2-({[(pyridin-3-ylmethyl)amino]carbonyl}-amino)ethoxy]-benzoyl}amino)-2-[(methoxycarbonyl)amino]propanoic acid], with 8.7 µM; and `CCOC(=O)N[C@@H](CNC(=O)c1ccc(OCCNC(=O)NCc2cccnc2)cc1O)C(=O)O` [Example 235, (2S)-2-[(ethoxycarbonyl)amino]-3-({2-hydroxy-4-[2-({[(pyridin-3-ylmethyl)amino]-carbonyl}amino)ethoxy]benzoyl}amino)propanoic acid], with 3 µM; and `CCCOC(=O)N[C@@H](CNC(=O)c1ccc(OCCNC(=O)NCc2cccnc2)cc1O)C(=O)O` [Example 236], with 1.9 µM.
As for `CC(C)OC(=O)N[C@@H](CNC(=O)c1ccc(OCCNC(=O)NCc2cccnc2)cc1O)C(=O)O` [Example 237, (2S)-3-({2-hydroxy-4-[2-({[(pyridin-3-ylmethyl)amino]carbonyl}-amino)ethoxy]-benzoyl}amino)-2-[(isopropoxycarbonyl)amino]propanoic acid], the IC50 turned out to be 2.7 µM.
For `C=CCCOC(=O)N[C@@H](CNC(=O)c1ccc(OCCNC(=O)NCc2cccnc2)cc1O)C(=O)O` [Example 239, (2S)-2-{[(but-3-enyloxy)carbonyl]amino}-3-({2-hydroxy-4-[2-({[(pyridin-3-ylmethyl)amino]carbonyl}amino)ethoxy]benzoyl}amino)propanoic acid], the IC50 came to 2.1 µM.
Then `CCCCCCOC(=O)N[C@@H](CNC(=O)c1ccc(OCCNC(=O)NCc2cccnc2)cc1O)C(=O)O` [Example 241, (2S)-2-{[(hexyloxy)carbonyl]amino}-3-({2-hydroxy-4-[2-({[(pyridin-3-ylmethyl)-amino]carbonyl}amino)ethoxy]benzoyl}amino)propanoic acid], with 4.1 µM; and `CCCCCCCCOC(=O)N[C@@H](CNC(=O)c1ccc(OCCNC(=O)NCc2cccnc2)cc1O)C(=O)O` [Example 242, (2S)-3-({2-hydroxy-4-[2-({[(pyridin-3-ylmethyl)amino]carbonyl}-amino)ethoxy]-benzoyl}amino)-2-{[(octyloxy)carbonyl]amino}propanoic acid], with 7.9 µM.
Then `CC(C)(C)COC(=O)N[C@@H](CNC(=O)c1ccc(OCCNC(=O)NCc2cccnc2)cc1O)C(=O)O` [Example 243, (2S)-3-({2-hydroxy-4-[2-({[(pyridin-3-ylmethyl)amino]carbonyl}-amino)ethoxy]-benzoyl}amino)-2-{[(neopentyloxy)carbonyl]amino}propanoic acid], with 0.69 µM; and `O=C(NCCOc1ccc(C(=O)NC[C@H](NC(=O)OCC(Cl)(Cl)Cl)C(=O)O)c(O)c1)NCc1cccnc1` [Example 244, (2S)-3-({2-hydroxy-4-[2-({[(pyridin-3-ylmethyl)amino]carbonyl}amino)-ethoxy]benzoyl}amino)-2-{[(2,2,2-trichloroethoxy)carbonyl]amino}propanoic acid], with 1.6 µM.
Then `CC(C)COC(=O)N[C@@H](CNC(=O)c1ccc(OCCNC(=O)NCc2cccnc2)cc1O)C(=O)O` [Example 246, (2S)-3-({2-hydroxy-4-[2-({[(pyridin-3-ylmethyl)amino]carbonyl}-amino)ethoxy]-benzoyl}amino)-2-[(isobutoxycarbonyl)amino]propanoic acid], with 1.6 µM; and `O=C(NCCOc1ccc(C(=O)NC[C@H](NC(=O)OCc2ccccc2)C(=O)O)c(O)c1)NCc1ccncc1` [Example 247, (2S)-2-{[(benzyloxy)carbonyl]amino}-3-({2-hydroxy-4-[2-({[(pyridin-4-ylmethyl)amino]carbonyl}amino)ethoxy]benzoyl}amino)propanoic acid], with 5.5 µM.
Take `CCCCCCOC(=O)N[C@@H](CNC(=O)c1ccc(OCCNC(=O)NCc2ccncc2)cc1O)C(=O)O` [Example 255, (2S)-2-{[(hexyloxy)carbonyl]amino}-3-({2-hydroxy-4-[2-({[(pyridin-4-ylmethyl)amino]carbonyl}amino)ethoxy]benzoyl}amino)propanoic acid]: the IC50 stood at 5.31 µM.
Under `CCCCCCCCOC(=O)N[C@@H](CNC(=O)c1ccc(OCCNC(=O)NCc2ccncc2)cc1O)C(=O)O` [Example 256, (2S)-3-({2-hydroxy-4-[2-({[(pyridin-4-ylmethyl)amino]carbonyl}-amino)ethoxy]-benzoyl}amino)-2-{[(octyloxy)carbonyl]amino}propanoic acid] stands 9.08 µM; under `CC(C)(C)COC(=O)N[C@@H](CNC(=O)c1ccc(OCCNC(=O)NCc2ccncc2)cc1O)C(=O)O` [Example 257, (2S)-3-({2-hydroxy-4-[2-({[(pyridin-4-ylmethyl)amino]carbonyl}-amino)ethoxy]-benzoyl}amino)-2-{[(neopentyloxy)carbonyl]amino}propanoic acid], 1.26 µM.
Then `O=C(NCCOc1ccc(C(=O)NC[C@H](NC(=O)OCC(Cl)(Cl)Cl)C(=O)O)c(O)c1)NCc1ccncc1` [Example 258, (2S)-3-({2-hydroxy-4-[2-({[(pyridin-4-ylmethyl)amino]carbonyl}amino)-ethoxy]-benzoyl}amino)-2-{[(2,2,2-trichloroethoxy)carbonyl]amino}propanoic acid], with 4.31 µM.
Under `Cc1ccc(CNC(=O)NCCOc2ccc(C(=O)NC[C@H](NC(=O)OCc3ccccc3)C(=O)O)c(O)c2)cc1` [Example 261, (2S)-2-{[(benzyloxy)carbonyl]amino}-3-({2-hydroxy-4-[2-({[(4-methylbenzyl)-amino]carbonyl}amino)ethoxy]benzoyl}amino)propanoic acid] stands 20.2 µM; under `COc1ccc(CNC(=O)NCCOc2ccc(C(=O)NC[C@H](NC(=O)OCc3ccccc3)C(=O)O)c(O)c2)cc1` [Example 262, (2S)-2-{[(benzyloxy)carbonyl]amino}-3-({2-hydroxy-4-[2-({[(4-methoxybenzyl)-amino]carbonyl}amino)ethoxy]benzoyl}amino)propanoic acid], 12.6 µM.
